Tests used:
[1] = test system: genotype 1b (Con 1) subgenomic replicon cell line; experiment: HCV replicon assay, genotype 1b (Renilla luciferase); assay type: cell-based, HCV genotype 1b (Con 1); details: Hepatitis C virus; genotype 1b replicon, 72 hours, luciferase; read-out: genotype 1b EC50 (range class)
Method: A genotype 1b (Con 1) subgenomic replicon cell line based on Blight et al., Science 2000 290: 1972-1974, modified to express a Renilla luciferase reporter gene was used to assess antiviral activity of test compounds. Cell cultures were maintained in a sub-confluent state in DMEM with glutamine, 10% heat-inactivated foetal bovine serum (FBS) and G418 (Geneticin®).
For assay, cells were seeded at a density of 7000 cells/well into 96 well tissue culture trays in culture media lacking G418. Compounds were tested in a three fold dilution series, for example starting from 50 uM. After 72 hours incubation at 37° C. and 5% CO2, Renilla luciferase activity was quantified via the Promega Renilla Luciferase or Renilla-Glo™ Luciferase Assay Systems (Promega corporation. The same method was employed for replicon assays using subgenomic genotype 1a and 2a replicon cell lines with a seeding cell density of 5000 cells/well for the 2a cell lines.
The compound concentration that reduced luciferase activity by 50% (EC50) was calculated using non-linear regression.

[2] = molecular target: 1b (BK) NS5bΔ21 (Hepatitis C virus genotype 1b (isolate BK) (HCV), UniProt P26663); experiment: HCV polymerase inhibition assay, genotype 1b; assay type: biochemical, HCV genotype 1b (BK); details: 1b (BK) NS5bΔ21, 33P-GTP incorporation; read-out: 1b polymerase IC50 (range class)
Method: HCV polymerase reactions were carried out using a modified method of Howe et al., Antimicrobial Agents and Chemotherapy 2004 48(12): 4813-4821. Reactions contained a final concentration of, 0.5% DMSO, 50 nM, 1b (BK) NS5bΔ21, 20 mM Tris-HCl pH 7.5, 5 mM MgCl2, 5 mM MnCl2, 3 mM DTT, 0.05% BSA, 0.2 U/μL RNasin, 10 μg/mL Poly(rC) template, GTP (at Km) and 0.05 μCi/μL ^33P-GTP in a total reaction volume of 50 μL. Compounds were tested in a three fold dilution series, for example starting from 50 μM. Reactions were initiated with the addition of GTP and terminated after 1 hour with 50 μL ice cold 0.2 M EDTA. Terminated reactions were transferred to DEAE 96-well filter plates, unincorporated nucleotides washed from the filters and 50 μL scintillation fluid added prior to reading on a scintillation counter. Similarly, a genotype 3a (VRL-69) NS5bΔ21 polymerase enzyme assay was conducted using essentially the same method.
The compound concentration that reduced ^33P-GTP incorporation by 50% (IC50) was calculated using non-linear regression.

Chain of 1b (BK) NS5bΔ21 (P26663 2420-2989): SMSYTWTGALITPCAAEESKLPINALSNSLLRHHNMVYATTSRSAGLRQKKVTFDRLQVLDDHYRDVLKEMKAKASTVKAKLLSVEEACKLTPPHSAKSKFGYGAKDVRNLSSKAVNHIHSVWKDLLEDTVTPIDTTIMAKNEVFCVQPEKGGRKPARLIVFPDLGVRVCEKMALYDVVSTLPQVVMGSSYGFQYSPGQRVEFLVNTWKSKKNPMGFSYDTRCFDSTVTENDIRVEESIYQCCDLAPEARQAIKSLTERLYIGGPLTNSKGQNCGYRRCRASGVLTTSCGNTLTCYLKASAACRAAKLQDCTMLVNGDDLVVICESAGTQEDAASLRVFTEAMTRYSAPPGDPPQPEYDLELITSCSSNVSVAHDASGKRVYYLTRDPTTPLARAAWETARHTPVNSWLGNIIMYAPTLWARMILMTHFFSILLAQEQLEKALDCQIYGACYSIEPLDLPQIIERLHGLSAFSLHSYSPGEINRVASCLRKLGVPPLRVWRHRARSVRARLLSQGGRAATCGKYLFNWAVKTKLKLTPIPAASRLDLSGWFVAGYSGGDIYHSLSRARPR

| Structure (SMILES) | EC50 [1] [nM] | IC50 [2] [nM] |
| --- | --- | --- |
| CCN(c1cc2nn(-c3ccc(NC(C)C)cc3)c(C(=O)NC)c2cc1C1CC1)S(C)(=O)=O [Compound 38] | < 990 | 1000 to 9990 |
| CCN(C(C)=O)c1cc2nn(-c3ccc(Br)cc3)c(C(=O)NC)c2cc1C1CC1 [Compound 48, 6-[Acetyl(ethyl)amino]-2-(4-bromophenyl)-5-cyclopropyl-N-methyl-2H-indazole-3-carboxamide] | 1000 to 9990 | 10000 to 50000 |
| CNC(=O)c1c2cc(C3CC3)c(N(CCCO)S(C)(=O)=O)cc2nn1-c1ccc(C(C)C)cc1 [Compound 50, 5-cyclopropyl-6-[(3-hydroxypropyl)(methylsulfonyl)amino]-N-methyl-2-[4-(propan-2-yl)-phenyl]-2H-indazole-3-carboxamide] | 1000 to 9990 | 1000 to 9990 |
| CNC(=O)c1c2cc(C3CC3)c(N(C3CCN(S(C)(=O)=O)C3)S(C)(=O)=O)cc2nn1-c1ccc(Br)cc1 (centres unmarked) [Compound 52, 2-(4-bromophenyl)-5-cyclopropyl-N-methyl-6-{(methylsulfonyl)[1-(methylsulfonyl)pyrrolidin-3-yl]amino}-2H-indazole-3-carboxamide] | < 990 | < 990 |
| CNC(=O)c1c2cc(C3CC3)c(N(CCCO)S(C)(=O)=O)cc2nn1-c1ccc(C2CC2)cc1 [Compound 53, 5-cyclopropyl-2-(4-cyclopropylphenyl)-6-[(3-hydroxypropyl)(methylsulfonyl)amino]-N-methyl-2H-indazole-3-carboxamide] | < 990 | 1000 to 9990 |
| CNC(=O)c1c2cc(C3CC3)c(N(CCCO)S(C)(=O)=O)cc2nn1-c1ccc(OC)cc1 [Compound 55, 5-cyclopropyl-6-[(3-hydroxypropyl)(methylsulfonyl)amino]-2-(4-methoxyphenyl)-N-methyl-2H-indazole-3-carboxamide] | 1000 to 9990 | 1000 to 9990 |
| CNC(=O)c1c2cc(C3CC3)c(N(CCCF)S(C)(=O)=O)cc2nn1-c1ccc(Cl)cc1 [Compound 57, 2-(4-chlorophenyl)-5-cyclopropyl-6-[3-fluoropropyl(methylsulfonyl)amino]-N-methyl-2H-indazole-3-carboxamide] | < 990 | < 990 |
| CNC(=O)c1c2cc(C3CC3)c(N(CCCNC(=O)CCC(=O)O)S(C)(=O)=O)cc2nn1-c1ccc(Nc2ccc(F)cc2)cc1 [Compound 58, 4-[(3-{[5-Cyclopropyl-2-{4-[(4-fluorophenyl)amino]phenyl}-3-(methylcarbamoyl)-2H-indazol-6-yl](methylsulfonyl)amino}propyl)amino]-4-oxobutanoic acid] | 10000 to 50000 | < 990 |
| CNC(=O)c1c2cc(C3CC3)c(N(CCCNC(C)=O)S(C)(=O)=O)cc2nn1-c1ccc(NCC(C)C)cc1 [Compound 60, 6-{[3-(acetylamino)propyl](methylsulfonyl)amino}-5-cyclopropyl-N-methyl-2-(4-[(2-methylpropyl)amino]phenyl)-2H-indazole-3-carboxamide] | 1000 to 9990 | 1000 to 9990 |
| CNC(=O)c1c2cc(C3CC3)c(N(CCCNC(=O)CCN)S(C)(=O)=O)cc2nn1-c1ccc(Br)cc1 [Compound 61, 6-{[3-(β-Alanylamino)propyl](methylsulfonyl)amino}-2-(4-bromophenyl)-5-cyclopropyl-N-methyl-2H-indazole-3-carboxamide] | 1000 to 9990 | < 990 |
| CNC(=O)c1c2cc(C3CC3)c(N(CCCNC(=O)[C@H]3CCC[C@H]3C(=O)O)S(C)(=O)=O)cc2nn1-c1ccc(Br)cc1 [Compound 63, (1R,2S)-2-[(3-{[2-(4-Bromophenyl)-5-cyclopropyl-3-(methylcarbamoyl)-2H-indazol-6-yl](methylsulfonyl)amino}propyl)carbamoyl]cyclopentanecarboxylic acid] | < 990 | < 990 |
| CNC(=O)c1c2cc(C3CC3)c(N(CCCNC(=O)C3COCCN3C)S(C)(=O)=O)cc2nn1-c1ccc(Br)cc1 (centres unmarked) [Compound 64, 2-(4-Bromophenyl)-5-cyclopropyl-N-methyl-6-{[3-({[4-methylmorpholin-3-yl]carbonyl}amino)propyl](methylsulfonyl)amino}-2H-indazole-3-carboxamide] | < 990 | < 990 |
| CNC(=O)c1c2cc(C3CC3)c(N(CCCN(C)C)S(C)(=O)=O)cc2nn1-c1ccc(Br)cc1 [Compound 65, 2-(4-Bromophenyl)-5-cyclopropyl-6-{[3-(dimethylamino)propyl] (methylsulfonyl)amino}-N-methyl-2H-indazole-3-carboxamide] | < 990 | < 990 |
| CNC(=O)c1c2cc(C3CC3)c(N(CCCNC(=O)CCC(=O)NC(C)C)S(C)(=O)=O)cc2nn1-c1ccc(Br)cc1 [Compound 67] | 1000 to 9990 | < 990 |
| CNC(=O)c1c2cc(C3CC3)c(N(CCCNC(=O)CCC(=O)O)S(C)(=O)=O)cc2nn1-c1ccc(Br)cc1 [Compound 68, 4-[(3-{[2-(4-bromophenyl)-5-cyclopropyl-3-(methylcarbamoyl)-2H-indazol-6-yl](methylsulfonyl)amino}propyl)amino]-4-oxobutanoic acid] | 10000 to 50000 | < 990 |
| CNC(=O)c1c2cc(C3CC3)c(N(CCCN3C(=O)CCC3=O)S(C)(=O)=O)cc2nn1-c1ccc(Br)cc1 [Compound 69, 2-(4-bromophenyl)-5-cyclopropyl-6-{[3-(2,5-dioxopyrrolidin-1-yl)propyl](methylsulfonyl)amino}-N-methyl-2H-indazole-3-carboxamide] | < 990 | < 990 |
| CNC(=O)c1c2cc(C3CC3)c(N(CCCN3CCNC3=O)S(C)(=O)=O)cc2nn1-c1ccc(Br)cc1 [Compound 70, 2-(4-Bromophenyl)-5-cyclopropyl-N-methyl-6-{(methylsulfonyl)[3-(2-oxoimidazolidin-1-yl)propyl]amino}-2H-indazole-3-carboxamide] | 1000 to 9990 | < 990 |
| C=Cc1cc2c(C(=O)NC)n(-c3ccc(F)cc3)nc2cc1N(CC)S(C)(=O)=O [Compound 71, 5-Ethenyl-6-[ethyl(methylsulfonyl)amino]-2-(4-fluorophenyl)-N-methyl-2H-indazole-3-carboxamide] | 1000 to 9990 | 1000 to 9990 |
| CCc1cc2c(C(=O)NC)n(-c3ccc(F)cc3)nc2cc1N(CC)S(C)(=O)=O [Compound 72, 5-ethyl-6-[ethyl(methylsulfonyl)amino]-2-(4-fluorophenyl)-N-methyl-2H-indazole-3-carboxamide] | 1000 to 9990 | 1000 to 9990 |
| CCN(c1cc2nn(-c3ccc(F)cc3)c(C(=O)NC)c2cc1C1=CCCC1)S(C)(=O)=O [Compound 73, 5-(Cyclopent-1-en-1-yl)-6-[ethyl(methylsulfonyl)amino]-2-(4-fluorophenyl)-N-methyl-2H-indazole-3-carboxamide] | 1000 to 9990 | 10000 to 50000 |
| CCN(c1cc2nn(-c3ccc(F)cc3)c(C(=O)NC)c2cc1C1CCCC1)S(C)(=O)=O [Compound 74, 5-cyclopentyl-6-[ethyl(methylsulfonyl)amino]-2-(4-fluorophenyl)-N-methyl-2H-indazole-3-carboxamide] | 1000 to 9990 | 10000 to 50000 |
| CCN(c1cc2nn(-c3ccc(F)cc3)c(C(=O)NC)c2cc1C#CCO)S(C)(=O)=O [Compound 75, 6-[Ethyl(methylsulfonyl)amino]-2-(4-fluorophenyl)-5-(3-hydroxyprop-1-yn-1-yl)-N-methyl-2H-indazole-3-carboxamide] | 10000 to 50000 | 1000 to 9990 |
